Laboratory results taken from ChEMBL document CHEMBL5532640, “Medicinal chemistry strategies targeting NLRP3 inflammasome pathway: A recent update from 2019 to mid-2023” (Eur J Med Chem, 2023).
≈ marks a conversion by molar mass, not a printed value. Each block holds one molecule with its values, some of them ahead of it.

Experiments:
[1] = Inhibition of LPS/nigericin induced LDH release in mouse J774.A1 cells; type: functional, cell-based
[2] = Cytotoxicity against mouse J774.A1 cells; type: toxicity, cell-based; conditions: read-out: TC50 (the source's name)
[3] = Inhibition of porcine whole blood NLRP3 assessed as reduction in LPS/ATP induced IL-1beta secretion preincubated for 3 hrs in presence of LPS followed by ATP addition and measured after 1 hr by immunoassay; conditions: Sus scrofa
[4] = target: T1, NACHT, LRR and PYD domains-containing protein 3 (Homo sapiens, UniProt Q96P20); assay: Inhibition of NLRP3 in human THP-1 cells assessed as reduction in LPS/ATP induced IL-1beta release at 10 uM preincubated with LPS for 4 hrs followed by compound addition for 1 hr prior to ATP stimulation for 1.5 hrs by ELISA relative to control; type: cell-based; conditions: time 2.5 hrs
[5] = target: T2, NACHT, LRR and PYD domains-containing protein 3 (Mus musculus, UniProt Q8R4B8); assay: Inhibition of NLRP3 inflammasome in mouse J774.A1 cells assessed as decrease in LPS/nigericin induced IL-1beta level preincubated with LPS for 4 hrs followed by compound addition for 1 hr in presence nigericin by ELISA; type: cell-based
[6] = target: T2, NACHT, LRR and PYD domains-containing protein 3; assay: Inhibition of NLRP3 in mouse BMDMs assessed as reduction in LPS/ATP-induced IL-1beta release preincubated for 30 mins in presence of LPS followed by ATP addition and measured after 1 hr by ELISA; type: cell-based, BMDM
[7] = target: T1, NACHT, LRR and PYD domains-containing protein 3; assay: Inhibition of NLRP3 inflammasome in human MDM cells assessed as reduction in LPS/nigericin induced IL-1beta secretion […] prior to nigericin addition and measured after 5 hrs by ELISA; type: cell-based
[8] = Cmax in human at 1000 mg per day, po administered for 8 consecutive days; type: ADME, organism-based; conditions: in vivo
[9] = target: T2, NACHT, LRR and PYD domains-containing protein 3; assay: Inhibition of NLRP3 inflammasome in mouse BMDMs assessed as reduction in IL-1beta activity preincubated with LPS for 4 hrs followed by compound addition for 30 mins prior to nigericin addition and measured after 1 hr by ELISA; type: cell-based, BMDM
[10] = target: T1, NACHT, LRR and PYD domains-containing protein 3; assay: Inhibition of NLRP3 in LPS/ATP induced human THP1 cells; type: cell-based, THP-1
[11] = target: T2, NACHT, LRR and PYD domains-containing protein 3; assay: Inhibition of NLRP3 in LPS/ATP induced mouse J774.A1 cells; type: cell-based
[12] = Solubility of the compound at pH 1.5; type: physicochemical; conditions: buffer
[13] = Stability in human liver microsomes assessed as compound remaining after 60 mins; type: ADME, Microsome; conditions: read-out: Stability
[14] = Half life in C57BL/6 mouse at 20 mg/kg, po; type: ADME, organism-based; conditions: in vivo
[15] = Stability in mouse liver microsomes assessed as compound remaining after 60 mins; type: ADME, Microsome; conditions: read-out: Stability
[16] = target: T2, NACHT, LRR and PYD domains-containing protein 3; assay: Covalent inhibition of NLRP3 in mouse BMDMs assessed as reduction in LPS/nigericin induced IL-1beta secretion pretreated with LPS for 3 hrs followed by compound addition for 30 mins prior to nigericin addition and measured after 30 mins by ELISA; type: cell-based, BMDM
[17] = target: T2, NACHT, LRR and PYD domains-containing protein 3; assay: Inhibition of NLRP3 in mouse J774.A1 cells assessed as reduction in LPS/ATP induced IL-1beta secretion; type: cell-based

T1 sequence (Q96P20 whole entry, the tested form may be a part): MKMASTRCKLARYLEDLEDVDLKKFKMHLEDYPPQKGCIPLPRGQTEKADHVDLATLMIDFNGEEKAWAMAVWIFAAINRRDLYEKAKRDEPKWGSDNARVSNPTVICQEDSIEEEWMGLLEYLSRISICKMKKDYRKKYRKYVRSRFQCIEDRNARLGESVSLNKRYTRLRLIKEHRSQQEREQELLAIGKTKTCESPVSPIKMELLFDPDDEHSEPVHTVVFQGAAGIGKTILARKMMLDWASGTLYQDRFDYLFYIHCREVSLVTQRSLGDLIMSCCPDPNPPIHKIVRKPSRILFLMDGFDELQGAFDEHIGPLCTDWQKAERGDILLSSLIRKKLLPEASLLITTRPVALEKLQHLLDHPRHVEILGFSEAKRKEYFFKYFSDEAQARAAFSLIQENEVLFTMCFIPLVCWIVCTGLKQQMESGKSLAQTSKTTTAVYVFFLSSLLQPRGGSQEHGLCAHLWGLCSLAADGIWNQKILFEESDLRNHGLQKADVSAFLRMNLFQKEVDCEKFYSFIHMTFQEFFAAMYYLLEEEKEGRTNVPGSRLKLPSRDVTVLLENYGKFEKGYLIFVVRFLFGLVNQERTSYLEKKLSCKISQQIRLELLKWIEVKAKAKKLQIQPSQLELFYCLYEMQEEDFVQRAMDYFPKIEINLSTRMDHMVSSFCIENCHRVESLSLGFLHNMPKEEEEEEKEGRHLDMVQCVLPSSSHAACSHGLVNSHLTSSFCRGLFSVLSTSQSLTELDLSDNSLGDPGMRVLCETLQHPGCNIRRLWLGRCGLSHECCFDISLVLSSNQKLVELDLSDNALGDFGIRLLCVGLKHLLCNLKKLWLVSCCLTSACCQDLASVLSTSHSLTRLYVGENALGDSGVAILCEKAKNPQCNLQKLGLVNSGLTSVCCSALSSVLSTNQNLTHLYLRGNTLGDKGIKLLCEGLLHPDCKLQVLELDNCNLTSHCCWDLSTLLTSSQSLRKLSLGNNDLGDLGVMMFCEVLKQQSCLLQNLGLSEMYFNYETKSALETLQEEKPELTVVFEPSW
T2 sequence (Q8R4B8 whole entry, the tested form may be a part): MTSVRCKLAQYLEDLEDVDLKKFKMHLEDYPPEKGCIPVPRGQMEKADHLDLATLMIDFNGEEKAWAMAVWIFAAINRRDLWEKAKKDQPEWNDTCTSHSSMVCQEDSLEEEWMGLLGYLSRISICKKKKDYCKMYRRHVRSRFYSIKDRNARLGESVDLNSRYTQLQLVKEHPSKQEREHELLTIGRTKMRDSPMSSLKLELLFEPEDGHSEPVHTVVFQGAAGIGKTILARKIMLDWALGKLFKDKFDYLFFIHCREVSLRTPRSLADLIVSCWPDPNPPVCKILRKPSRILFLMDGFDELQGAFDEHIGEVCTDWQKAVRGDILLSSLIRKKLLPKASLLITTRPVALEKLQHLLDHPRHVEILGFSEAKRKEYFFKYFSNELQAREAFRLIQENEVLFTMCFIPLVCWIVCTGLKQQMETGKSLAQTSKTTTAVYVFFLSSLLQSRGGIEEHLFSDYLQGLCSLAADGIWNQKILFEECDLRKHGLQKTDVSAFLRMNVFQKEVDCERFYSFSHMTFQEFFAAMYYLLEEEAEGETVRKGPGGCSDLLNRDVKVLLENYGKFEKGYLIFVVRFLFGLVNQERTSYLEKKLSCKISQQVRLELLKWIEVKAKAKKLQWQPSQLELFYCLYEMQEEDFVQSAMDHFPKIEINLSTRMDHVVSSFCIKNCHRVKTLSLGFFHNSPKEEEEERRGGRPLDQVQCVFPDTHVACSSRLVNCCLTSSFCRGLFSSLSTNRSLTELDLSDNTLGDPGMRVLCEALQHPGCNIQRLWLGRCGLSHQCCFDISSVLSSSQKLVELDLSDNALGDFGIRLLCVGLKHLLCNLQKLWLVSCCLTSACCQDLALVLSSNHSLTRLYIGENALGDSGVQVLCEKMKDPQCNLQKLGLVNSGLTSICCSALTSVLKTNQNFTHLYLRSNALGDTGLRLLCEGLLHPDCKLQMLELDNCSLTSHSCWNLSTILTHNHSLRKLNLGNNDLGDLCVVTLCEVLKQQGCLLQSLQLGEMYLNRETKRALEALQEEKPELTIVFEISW

SMILES: CO[C@@H]1C2=C(C(=O)C(=O)C(C(C)C)=C2)[C@@]2(C)CCCC(C)(C)[C@@H]2[C@H]1O
- IC50 [1]: 230 nM

SMILES: Cc1ccc(S(=O)(=O)/C=C/C#N)cc1
- CC50 [2]: 6400 nM

SMILES: CC(=O)O[C@H]1[C@@H](OC(C)=O)[C@@]2(C)C3=CC[C@@H](C4=CC(=O)O[C@@H]4O)[C@]3(C)CC[C@@H]2[C@@]2(C)C=CC(=O)OC(C)(C)[C@H]12
- IC50 [5]: 3200 nM

SMILES: CS(=O)(=O)CCC#N
- IC50 [7]: 1000 nM
- Cmax [8]: 41400 ng/mL

SMILES: CCO[C@H]1C[C@H]2C(C)(C)CCC[C@]2(C)C2=C1C=C(C(C)C)C(=O)C2=O
- IC50 [1]: 230 nM

SMILES: CC1(C)OC(=O)C=C[C@@]2(C)[C@H]1CC(=O)[C@@]1(C)C3=CC[C@@H](C4=CC(=O)O[C@@H]4O)[C@]3(C)CC[C@@H]12
- IC50 [5]: 3200 nM

SMILES: CC1=C(O)C(=O)C=C2C1=CC=C1[C@@]2(C)[C@@H](Br)C[C@@]2(C)[C@@H]3C[C@@H](C)C(=O)C[C@]3(C)CC[C@]12C
- IC50 [9]: 190 nM

SMILES: C=C1C(=O)[C@]23[C@H](O)[C@H]1CC[C@H]2[C@@]12CO[C@]3(O)[C@@H](O)[C@@H]1C(C)(C)CC[C@@H]2O [ORIDONIN]
- IC50 [10]: 5180 nM

SMILES: COc1c(O)cc2c(c1C)C(=O)C=C1[C@@]2(C)CC[C@@]2(C)[C@@H]3C[C@@H](C)C(=O)[C@@H](O)[C@]3(C)CC[C@]12C
- IC50 [9]: 1150 nM

SMILES: CC1(C)OC(=O)C=C[C@]2(C)[C@H]3CC[C@@]4(C)[C@H](C5=CC(=O)NC5=O)C[C@H]5O[C@]54[C@]3(C)OC(=O)C[C@@H]12
- IC50 [5]: 3200 nM

SMILES: CC(=O)O[C@@H]1C[C@H]2C(C)(C)OC(=O)C=C[C@]2(C)[C@H]2CC[C@]3(C)C(=CC[C@H]3C3=CC(=O)O[C@@H]3O)[C@@]21C
- IC50 [5]: 3200 nM

SMILES: CC(C)C1=CC2=C[C@H](O)[C@H]3C(C)(C)CCC[C@]3(C)[C@@]2(O)C(=O)C1=O
- IC50 [1]: 230 nM

SMILES: CN[C@@H]1COc2c(S(=O)(=O)NC(=O)Nc3c4c(cc5c3CCC5)CCC4)cnn2C1
- solubility [12]: 5760 µg/mL (≈ 13.3 mM)

SMILES: CCO[C@@H]1C[C@H]2C(C)(C)CCC[C@]2(C)C2=C1C=C(C(C)C)C(=O)C2=O
- IC50 [1]: 230 nM

SMILES: CC(=O)O[C@H]1C=C2C=C(C(C)C)C(=O)C(O)=C2[C@@]2(C)CCCC(C)(C)[C@H]12
- IC50 [1]: 230 nM

SMILES: CC(C)(O)c1coc(S(=O)(=O)NC(=O)Nc2c3c(cc4c2CCC4)CCC3)c1
- remaining at 1 h [13]: > 70%
- half-life [14]: 3.27 h
- remaining at 1 h [15]: > 70%

SMILES: CC1(C)CCC[C@@]2(C)C1=C(O)C(=O)c1cc(C(C)(C)O)c(O)c(O)c12
- IC50 [1]: 230 nM

The next lines start with results.

- IC50 [3]: 350 nM
SMILES: CCN1CCC(S(=O)(=O)NC(=O)Nc2c3c(cc4c2CCC4)CCC3)CC1 [SELNOFLAST]

- inhibition [4]: 10.3%
SMILES: O=C(CCc1ccccc1Cl)N1CCC(n2c(=O)[nH]c3ccccc32)CC1

- IC50 [6]: 16 nM
SMILES: CC(C)n1ccc(S(=O)(=O)NC(=O)Nc2c3c(cc4c2CCC4)CCC3)n1 [INZOMELID]

- inhibition [4]: 21.1%
SMILES: O=C(O)Cn1c(=O)n(C(=O)CCc2ccccc2Cl)c2ccccc21

- IC50 [11]: 920 nM
SMILES: O=C(/C=C/S(=O)(=O)c1ccccc1Cl)OCCc1ccccc1
- CC50 [2]: 41800 nM

- inhibition [4]: 25.2%
SMILES: N#C/N=C(\NCc1ccccc1)NC1CCN(C(=O)CCc2ccccc2Cl)CC1

- IC50 [16]: 183 nM
SMILES: O=C(CBr)NCc1ccc(C(F)(F)F)cc1

- inhibition [4]: 20.3%
SMILES: O=C(CCc1ccccc1Cl)NCCn1c(=O)[nH]c2ccccc21

- IC50 [11]: 1830 nM
SMILES: NS(=O)(=O)c1ccc(CCNC(=O)/C=C/S(=O)(=O)c2ccccc2Cl)cc1
- CC50 [2]: 27500 nM

- IC50 [17]: 2410 nM
SMILES: CCOCCOc1ccc(/C=C/c2cc(OC)cc(OC)c2/C=C/[N+](=O)[O-])cc1

- inhibition [4]: 14.4%
SMILES: C=C(Cc1ccccc1Cl)C(=O)N1CCC(n2c(=O)[nH]c3ccccc32)CC1
